The values below come from patent US20220025003A1, “REAGENTS AND METHODS FOR CONTROLLING PROTEIN FUNCTION AND INTERACTION” (University of Washington, priority 2018, published 2022).

In general, Ki refers to a dissociation constant, usually derived from enzyme kinetics or from competition with a known ligand.

One assay deals with NS3a inactive. Briefly: ANR-GST pulldown with immobilized biotinylated NS3a. Type of assay: binding, hepatitis C virus. Particulars: 10 μM danoprevir, 5 μM ANR-GST. As for the experimental part:
Pierce high-capacity streptavidin beads (Thermo-Fisher #P120359) were prepared by washing three times with Buffer PDA (TBS+0.05% tween+0.5 mg/mL BSA). For each condition and each replicate, beads were washed and incubated separately. The wash was performed by adding 200 μL Buffer PDA to 30 μL of a 50/50 bead slurry, inverting to mix, and spinning down (2500×g for 2 min). The supernatant was removed by pipetting, and the wash was repeated two more times to end with a 50/50 slurry of beads in wash buffer.
Purified biotinylated NS3a was prepared at a 50× final concentration and 10 μL were added to a 490 μL 50/50 slurry of streptavidin beads and Buffer PD for final NS3a concentration of 125 nM. Beads were incubated and rotated at 4° C. After one hour, beads were harvested and washed three times as described previously, ending in a 50/50 bead/buffer slurry. ANR was added to all samples at a final concentration of 5 μM. For the danoprevir treated samples, danoprevir was added to a final concentration of 10 μM. Buffer PD was added to a final volume of 500 μL, and the beads were incubated and rotated at 4° C. After 1 hour, beads were pelleted and washed three times in Buffer FDB (TBS buffer+0.05% Tween) with 5 minute incubations between washes on a rotator at 4° C. To obtain final bound protein, beads were pelleted and supernatant was aspirated, resulting in a final volume of beads of 20 μL. […]

A further assay concerns the target NS3a. Particulars: read-out: NS3a:drug Ki; published enzyme inhibition studies; cited from earlier work.

The structures appear in SMILES notation.

Turning to `CC(C)(C)OC(=O)N[C@H]1CCCCC/C=C\[C@@H]2C[C@@]2(C(=O)NS(=O)(=O)C2CC2)NC(=O)[C@@H]2C[C@@H](OC(=O)N3Cc4cccc(F)c4C3)CN2C1=O` [danoprevir], the “pull down of ANR-GST by immobilized NS3a inactive” value in the assay with NS3a inactive is “inhibits the ability of immobilized NS3a inactive to pull down ANR-GST”. Also, the inhibition constant (Ki) on NS3a was 1 nM.
